{
  "source": "patent US20210244791A1",
  "about": "“APPLICATION OF PEDF-DERIVED SHORT PEPTIDES IN TENDON HEALING” (BRIM Biotechnology, Inc., priority 2018, published 2021)",
  "key": {"[1]": {"system": "cyclin D1", "assay": "Western blot analysis of cyclin D1 expression in TSPC", "format": "cell-based, rabbit", "settings": "TSPC treated 24 h; compared with solvent-treated cells; normalized to β-actin", "description": "Primary rabbit TSPC were treated with 10NM 29-mer or its variants for 24 h. Representative blots (A) and densitometric analysis with the SD (B) from three independent experiments are shown. Cyclin D1 expression was normalized to ([…]. *P<0.01 vs. solvent-treated cells. ^#P<0.05 vs. 29-mer-treated cells.\nAchilles tendons from New Zealand White rabbits (6-8 months old, 3.0-4.0 kg) were used in this study. Achilles tendons were washed two times with sterile phosphate-buffered saline (PBS) containing 50 μg/ml gentamicin. The tendon and tendon sheath were cut into small pieces (1-2 mm^3). Each 100 mg of fragment was then digested in a solution containing 3 mg/ml of type I collagenase and 4 mg/ml of dispase in 1 ml balance salt solution (BSS; Alcone) at 37° C. for 4 hours. The digested tissues were washed three times with PBS and collected by centrifugation (800 g for 10 min). The digested tissues were placed in tissue-culture plates (Falcon Labware; NJ, USA) and resuspended in high-glucose DMEM supplemented with 10% FBS and 50 μg/ml gentamycin, and maintained at 37° C. with 5% CO2. After 5 days, the medium was changed to remove the loosened tissue residues. Subsequently, tendon cells were incubated with 10% FBS medium for 2 days, and then cultured with a basal medium (2% FBS, 1% ITSE, 300 μg/ml L-glutamine, 1% antibiotic-antimicotic solutions) for further 10 days. Culture medium was changed every 3 days. For passage, tendon cells were harvested with 0.25% trypsin/EDTA, cell counting by haemocytometer, approximately 5×10^3 cells were seeded in each well of a 96-well cell culture plate or 2×10^5 cells were seeded in each well of a 6-well cell culture plate for 24 h. These expanded tendon cells were then treated with 10 μM 29-mer or its variants in fresh basal medium for further 24 h and subjected to cell proliferation assay and western blot analysis, respectively.\nCell lysis, SDS-PAGE, and antibodies used for immunoblotting were performed as described (Ho et al., 15-deoxy-Delta(12,14)-prostaglandin J2 induces vascular endothelial cell apoptosis through the sequential activation of MAPKS and p53. J Biol. Chem., 2008; 283(44): 30273-30288). The band intensity in immunoblot was evaluated with a Model GS-700 imaging densitometer (Bio-Rad Laboratories, Hercules, Calif.) and analyzed using Labworks 4.0 software.\nHowever, the 29-mer effect on cyclin D1 protein induction was almost abolished by alanine/glycine replacement at residue S93, A96, Q98, 1103, 1104 and R106, respectively (1.3±0.1, 1.5±0.3, 1.3±0.1, 0.9±0.1, 1.3±0.2, and 1.0±0.3). […] The data also imply that the PDSP at positions Ser93, Ala96, Gln98, Ile103, Ile104, and Arg106 are important for sustaining the PDSP effect on induction of TSPC proliferation."}, "[2]": {"system": "injured Achilles tendon", "assay": "Rat model of Achilles tendon injury, histology (H&E) and histopathological score", "format": "in vivo", "settings": "1 week postoperative", "excerpt": "Representative micrographs of the histopathological analysis by H&E staining. H&E-stained sections in higher magnification show uninjured tendon tissue with a relative scarcity of cells among the collagen fibers.\n(A) Representative H&E-stained longitudinal sections in higher magnification show the nuclei morphologies in uninjured tendon tissue and injured tendon treated with vehicle/alginate and 29-mer/alginate for 1 week. (B) Histopathological scores. Total scores were determining by fiber structure, fiber arrangement, rounding of the nuclei, resident cell density and inflammation (infiltration of inflammatory cells, neovascularization and fatty deposits). Data are reported as mean±SE. *P<0.0005 versus vehicle/alginate-treated tendon; ^#P<0.05 versus 29-mer/alginate-treated tendon.\n(§1) To investigate the effects of the 29-mer peptide on tendon healing, a rat model of Achilles tendon injury was established as reported by Orhan et al. (The effect of extracorporeal shock waves on a rat model of injury to tendon Achilles. A histological and biomechanical study. J. Bone Joint Surg. Br. 2004;.86(4):.613-618). Adult 10-week-old male Sprague-Dawley rats (initial body weight=312±11 g) were anesthetized by an intraperitoneal injection of xylazine (10 mg/kg). Then, the left tendo Achilles injury was created by full-thickness insertion of an 18-G needle through tendo Achilles 1 cm proximal to the calcaneum attachment site. This created a horizontal wound that was flanked by intact tendon tissue to prevent the retraction of severed ends. The skin incision was closed after the wound was irrigated with sterile saline. Treatments were applied to area around the tendon lesion by subcutaneous injection with 150 μl of alginate gel mixed with 100 μM 29-mer or DMSO vehicle (six rats per experimental condition).\nThe tendon and surrounding soft tissue were dissected. Specimens were fixed in a 4% paraformaldehyde (PFA) solution and then were embedded in paraffin blocks. Sections (5 μm in thickness) were longitudinally cut and stained with hematoxylin and eosin (H&E) or used for immunohistochemical examination. 36 sections per tendon were carefully prepared so as to include the most severely degenerated area. Images were captured using a Nikon Eclipse 80i microscope (Nikon Corporation, Tokyo, Japan) equipped with a Leica DC 500 camera (Leica Microsystems, Wetzlar, Germany). Four sections of each sample containing injured tendon tissues were selected and evaluated by two blinded observers to assess the tendon morphology according to a modified semi-quantitative grading score from 0 to 3 proposed by Chen et al. (Tendon derived stem cells promote platelet-rich plasma healing in collagenase-induced rat Achilles tendinopathy. Cell Physiol. Biochem., 2014; 34(6): 2153-68). The scores analyzed the fiber structure (0-3), fiber arrangement (0-3), rounding of the nuclei (0-3), resident cell density (0-3), and inflammation (0-3; infiltration of inflammatory cells, neovascularization and fatty deposits). According to this grading system, a perfectly normal tendon obtained a score of 0, whereas a score of 15 was assigned to maximally abnormal tendons.\nTo investigate the therapeutic effect of the 29-mer peptide on injured tendon, a rat model of Achilles tendon injury was established by full-thickness insertion of an 18-G needle through the tendon Achilles. We delivered the 29-mer in a 150 μl alginate gel, which releases 90% loaded 29-mer in 5 days as described in a previous protocol (Ho et al., PEDF-derived peptide promotes skeletal muscle regeneration through its mitogenic effect on muscle progenitor cells. Am J Physiol. Cell Physiol. 2015 Aug. 1; 309(3): C159-68)."}, "[3]": {"system": "CD146-positive TSPC", "assay": "CD146 immunostaining of TSPC in injured Achilles tendon", "format": "in vivo, rat", "settings": "1 week after wounding; peptide/alginate gel; vehicle/alginate 38.3±7.8", "description": "(A) Representative CD146-stained longitudinal sections. (Original magnification×200). (B) The number of CD146-positive TSPC per 200×field of view on injured tendon sections. Data are reported as mean±SE. Total CD146^+ cells were evaluated from 6 sections/tendon specimen, with 3 rats in each group. *P<0.001 versus vehicle/alginate-treated tendon; #p <0.001 versus 29-mer/alginate-treated tendon.\nas §1, with “The skin incision was closed after the wound was irrigated with sterile saline. Treatments were applied to area around the tendon lesion by subcutaneous injection with 150 μl of alginate gel mixed with 100 μM 29-mer or DMSO vehicle (six rats per experimental condition).” left out\nCD146 is one of the TSPC markers. […] To test the mechanism of the 29-mer-induced tendon repair, CD146 immunostaining of TSPC located at injured tendon was measured, at 1 week after wounding. […]"}},
  "data": [
    {"substance": "H105A: 29-mer variant with single alanine alteration at residue 105 (SLGAEQRTESIIARALYYDLISSPDIHGT; UniProt P36955 93-121, looked up, variant H105A)", "values": [
      {"measurement": "induction of the cyclin D1 protein", "setting": "[1]", "result": "2.7±0.3", "unit": "fold"},
      {"measurement": "total histopathological score", "setting": "[2]; peptide/alginate gel, 0 = normal tendon, 15 = maximally abnormal, vehicle/alginate 12.7±0.6", "result": "7.8±0.7"},
      {"measurement": "histological appearance of treated tendon (H&E staining)", "setting": "[2]; subcutaneous 150 μl alginate gel with 100 μM peptide", "result": "uniform appearance of well-aligned collagen fibers and no degenerative events similar to the 29-mer treatment"},
      {"measurement": "number of CD146-positive TSPC on injured tendon sections", "setting": "[3]", "result": "88.5±7.8", "unit": "cells per 200× field"}
    ]}
  ]
}
